This test deals with human plasma kallikrein (Homo sapiens (Human), UniProt P03952). The following applies: human plasma kallikrein 25 pM, substrate 0.5 uM, 1 hour pre-incubation at room temperature, read at t=60 min.
Sequence of human plasma kallikrein (P03952 whole entry, looked up): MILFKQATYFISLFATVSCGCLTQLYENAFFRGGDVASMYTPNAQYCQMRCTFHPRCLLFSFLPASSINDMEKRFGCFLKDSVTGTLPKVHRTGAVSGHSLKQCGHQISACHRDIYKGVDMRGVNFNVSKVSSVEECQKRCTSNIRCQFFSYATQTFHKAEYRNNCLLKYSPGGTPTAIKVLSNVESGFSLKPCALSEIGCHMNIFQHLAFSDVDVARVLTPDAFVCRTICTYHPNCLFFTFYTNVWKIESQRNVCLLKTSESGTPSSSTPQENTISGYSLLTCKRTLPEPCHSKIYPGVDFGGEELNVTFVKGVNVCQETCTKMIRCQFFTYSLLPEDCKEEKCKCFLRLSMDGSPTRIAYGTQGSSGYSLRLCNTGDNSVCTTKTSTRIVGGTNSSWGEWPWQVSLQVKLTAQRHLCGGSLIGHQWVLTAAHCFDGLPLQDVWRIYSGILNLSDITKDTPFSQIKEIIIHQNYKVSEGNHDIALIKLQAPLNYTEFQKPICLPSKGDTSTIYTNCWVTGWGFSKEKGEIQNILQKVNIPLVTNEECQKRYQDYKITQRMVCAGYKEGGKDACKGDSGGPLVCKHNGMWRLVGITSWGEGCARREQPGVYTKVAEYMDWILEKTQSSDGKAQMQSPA
Sequence of human plasma kallikrein (P03952 whole entry partner, looked up): as the sequence (P03952 whole entry, looked up) above
Procedure: All other chemicals were of analytical grade.
A stock solution of 0.17 mg/ml deinonized water was stored at −80° C. Enzymatic reactions were conducted in ‘assay buffer’, comprising 50 mM Hepes/NaOH at pH 7.8, 150 mM NaCl, 1 mM EDTA and 0.05% (w/v) CHAPS.
Both, enzyme and substrate were diluted in assay buffer.
All protein and peptide containing solutions were handled in siliconized tubes (Life Systems Design, Merenschwand, Switzerland). […] Plate measurements were conducted by the means of a Safire2 reader (TECAN, Maennedorf, Switzerland). The Safire2 is a monochomator-based instrument and wavelengths of 485 nm and 535 nm were taken for fluorescence excitation and emission acquisition, respectively. The bandwidths were set to 10 nm in both the excitation and the emission path. The fluorescence in each well was excited by three flashes per measurement.
The test compound was dissolved in 90% (v/v) DMSO/water. For the assays, 250 nL of the 90% (v/v) DMSO/water solution or compound solution were added per well, followed by the addition of 12.5 μl protease solution (protease in assay buffer). […] After 1 hour of pre-incubation at room temperature, the reactions were started by the addition of 12.5 μl substrate solution (in assay buffer, final assay concentration was 0.5 uM). After the addition of the substrate solution, the final DMSO concentration in the assay was 0.9% (v/v). […] The IC50 value was calculated from the plot of percentage of inhibition vs. inhibitor concentration by a logistics fit according to the following equation: y=A2+(A1−A2)/(1+(x/IC50)^p) where y is the %-inhibition at the inhibitor concentration, x. A1 is the lowest inhibition value, i.e. 0%, and A2 the maximum inhibition value, i.e. 100%. The exponent, p, is the Hill coefficient. The curve fitting was conducted with the non-linear regression routine of the analysis software Origin 7.55R6 (OriginLab Corporation).
Compound `COCCOc1cc(N)nc(C)c1CNC(=O)c1cnn(Cc2ccccc2)c1` [Example 60, N-((6-amino-4-(2-methoxyethoxy)-2-methylpyridin-3-yl)methyl)-1-benzyl-1H-pyrazole-4-carboxamide] displayed a concentration for half-maximal inhibition (IC50) of 379 nM. In the case of `Cc1cc(N)nc(C)c1CNC(=O)c1ccn(S(=O)(=O)c2cccc(-c3ncccn3)c2)c1` [Example 132, N-((6-amino-2,4-dimethylpyridin-3-yl)methyl)-1-(3-(pyrimidin-2-yl)phenylsulfonyl)-1H-pyrrole-3-carboxamide], the IC50 came to 71 nM. Compound `Cc1cc(N)nc(C)c1CNC(=O)c1cnn(C(C)c2ccccc2)c1` (stereo not drawn) [Example 100, N-((6-amino-2,4-dimethylpyridin-3-yl)methyl)-1-(1-phenylethyl)-1H-pyrazole-4-carboxamide] came in with an IC50 of 642 nM.

On to `Cc1cc(N)nc(C)c1CNC(=O)c1cn(Cc2ccc3ccccc3c2)nn1` [Example 40, N-((6-amino-2,4-dimethylpyridin-3-yl)methyl)-1-(naphthalen-2-ylmethyl)-1H-1,2,3-triazole-4-carboxamide], for which the IC50 was 9 nM.

`Cc1cc(N)nc(C)c1CNC(=O)c1n[nH]c([C@@H](N)c2ccccc2)n1` [Example 123, (S)-5-(amino(phenyl)methyl)-N-((6-amino-2,4-dimethylpyridin-3-yl)methyl)-1H-1,2,4-triazole-3-carboxamide] registered a concentration for half-maximal inhibition (IC50) of 15800 nM. Then `Cc1cc(N)nc(C)c1CNC(=O)c1cnn(Cc2ccc(COc3ccccc3)cc2)c1` [Example 89, N-((6-amino-2,4-dimethylpyridin-3-yl)methyl)-1-(4-(Phenoxymethyl)benzyl)-1H-pyrazole-4-carboxamide], with 6 nM; and `Cc1cc(N)nc(C)c1CNC(=O)c1cnn(Cc2ccc3c(c2)N(C)CCC3)c1` [Example 152, N-((6-Amino-2,4-dimethylpyridin-3-yl)methyl)-1-((1-methyl-1,2,3,4-tetrahydroquinolin-7-yl)methyl)-1H-pyrazole-4-carboxamide], with 4 nM. The figure for `Cc1cc(N)nc(C)c1CNC(=O)c1cnn(Cc2ccc(Cn3cccn3)cc2)c1` [Example 145, 1-(4-((1H-pyrazol-1-yl)methyl)benzyl)-N-((6-amino-2,4-dimethylpyridin-3-yl)methyl)-1H-pyrazole-4-carboxamide] is 0.2 nM; for `Cc1cc(N)nc(C)c1CNC(=O)c1nc(Cc2ccc(-c3ccccc3)cc2)n[nH]1` [Example 124, N-((6-amino-2,4-dimethylpyridin-3-yl)methyl)-3-(biphenyl-4-ylmethyl)-1H-1,2,4-triazole-5-carboxamide] it is 71 nM. The figure for `Cc1cc(N)nc(C)c1CNC(=O)c1cnn(Cc2ccc3c(c2)cc(C)n3C)c1` [Example 168, N-((6-Amino-2,4-dimethylpyridin-3-yl)methyl)-1-((1,2-dimethyl-1H-indol-5-yl)methyl)-1H-pyrazole-4-carboxamide] is 0.1 nM. Regarding `Cc1cc(N)nc(C)c1CNC(=O)c1cnn(Cc2ccc(NC(=O)NC3CC3)cc2)c1` [Example 112, N-((6-amino-2,4-dimethylpyridin-3-yl)methyl)-1-(4-(3-cyclopropylureido)benzyl)-1H-pyrazole-4-carboxamide], the IC50 was 229 nM. `Cc1cc(N)nc(C)c1CNC(=O)c1cnn(Cc2ccccc2Cl)c1` [Example 87, N-((6-amino-2,4-dimethylpyridin-3-yl)methyl)-1-(2-chlorobenzyl)-1H-pyrazole-4-carboxamide]: the IC50 stood at 1300 nM. The figure for `Cc1cc(N)nc(C)c1CNC(=O)c1cnn(Cc2cnc3ccccc3c2)c1` [Example 155, N-((6-amino-2,4-dimethylpyridin-3-yl)methyl)-1-(quinolin-3-ylmethyl)-1H-pyrazole-4-carboxamide] is 3 nM. As to `Cc1cc(N)nc(C)c1CNC(=O)c1cnn(Cc2cn3ccccc3n2)c1` [Example 30, N-((6-amino-2,4-dimethylpyridin-3-yl)methyl)-1-(imidazo[1,2-a]pyridin-2-ylmethyl)-1H-pyrazole-4-carboxamide], the IC50 was 204 nM. As to `Cc1nc(N)cc(OCc2ncco2)c1CNC(=O)c1cn(Cc2ccccc2)nn1` [Example 137, N-((6-amino-2-methyl-4-(oxazol-2-ylmethoxy)pyridin-3-yl)methyl)-1-benzyl-1H-1,2,3-triazole-4-carboxamide], the IC50 came out at 127 nM.

In the case of `COc1cccc(S(=O)(=O)n2ccc(C(=O)NCc3c(C)cc(N)nc3C)c2)c1` [Example 129, N-((6-amino-2,4-dimethylpyridin-3-yl)methyl)-1-(3-methoxyphenylsulfonyl)-1H-pyrrole-3-carboxamide], 244 nM corresponded to half-maximal inhibition (IC50). The figure for `COc1cc(N)nc(C)c1CNC(=O)c1cnn(Cc2ccccc2)c1` [Example 14, N-((6-amino-4-methoxy-2-methylpyridin-3-yl)methyl)-1-benzyl-1H-pyrazole-4-carboxamide] is 320 nM; for `Cc1cc(N)nc(C)c1CNC(=O)c1coc(Oc2ccccc2)n1` [Example 78, N-((6-amino-2,4-dimethylpyridin-3-yl)methyl)-2-phenoxyoxazole-4-carboxamide] it is 10100 nM; for `Cc1cc(N)nc(C)c1CNC(=O)c1cnn(Cc2ccc3[nH]c(C)c(C)c3c2)c1` [Example 75, N-((6-amino-2,4-dimethylpyridin-3-yl)methyl)-1-((2,3-dimethyl-1H-indol-5-yl)methyl)-1H-pyrazole-4-carboxamide] it is 3.1 nM.

`Cc1cc(N)nc(C)c1CNC(=O)c1ncn(Cc2ccc(-n3cccn3)cc2)n1` [Example 66, 1-(4-(1H-pyrazol-1-yl)benzyl)-N-((6-amino-2,4-dimethylpyridin-3-yl)methyl)-1H-1,2,4-triazole-3-carboxamide] registered an IC50 of 325 nM. For `Cc1nc(N)cc(OC(F)F)c1CNC(=O)c1cnn(Cc2ccccc2)c1` [Example 180, N-((6-Amino-4-(difluoromethoxy)-2-methylpyridin-3-yl)methyl)-1-benzyl-1H-pyrazole-4-carboxamide], the concentration for half-maximal inhibition (IC50) was > 100000 nM. Take `Cc1cc(N)nc(C)c1CNC(=O)c1cn(Cc2ccccc2)nn1` [Example 21, N-((6-amino-2,4-dimethylpyridin-3-yl)methyl)-1-benzyl-1H-1,2,3-triazole-4-carboxamide]: the IC50 was 2540 nM. Then `Cc1cc(N)nc(C)c1CNC(=O)c1ncn(Cc2ccc(Cn3cncn3)cc2)n1` [Example 59], with 209 nM. As to `Cc1cc(N)nc(C)c1CNC(=O)c1cnn(Cc2cc3ccccc3o2)c1` [Example 31], the IC50 stood at 143 nM. On to `Cc1cc(N)nc(C)c1CNC(=O)c1cnn(Cc2cccc3c2OCCCO3)c1` [Example 95, N-((6-amino-2,4-dimethylpyridin-3-yl)methyl)-1-((3,4-dihydro-2H-benzo[b][1,4]dioxepin-6-yl)methyl)-1H-pyrazole-4-carboxamide], for which the midpoint of inhibition, the IC50, lay at 485 nM.

Regarding `Cc1cc(N)nc(C)c1CNC(=O)c1cn(Cc2ncccn2)nn1` [Example 178, N-((6-Amino-2,4-dimethylpyridin-3-yl)methyl)-1-(pyrimidin-2-ylmethyl)-1H-1,2,3-triazole-4-carboxamide], the IC50 is 67300 nM.

In the case of `Cc1cc(N)nc(C)c1CNC(=O)c1cn(Cc2ccc(-n3cccn3)cc2)cn1` [Example 24, 1-(4-(1H-pyrazol-1-yl)benzyl)-N-((6-amino-2,4-dimethylpyridin-3-yl)methyl)-1H-imidazole-4-carboxamide], it took 238 nM to reach half-maximal inhibition (IC50).

In turn, `Cc1cc(N)nc(C)c1CNC(=O)c1cnn(Cc2ccc(C(=O)NC3CCS(=O)(=O)C3)cc2)c1` (stereo not drawn) [Example 111, 1-[4-(1,1-Dioxo-tetrahydro-1lambda*6*-thiophen-3-ylcarbamoyl)-benzyl]-1H-pyrazole-4-carboxylic acid (6-amino-2,4-dimethyl-pyridin-3-ylmethyl)-amide] showed a 50% inhibitory concentration (IC50) of 2100 nM.

In turn, `Cc1cc(N)nc(C)c1CNC(=O)c1cnn(Cc2ccc(F)cc2F)c1` [Example 93, N-((6-amino-2,4-dimethylpyridin-3-yl)methyl)-1-(2,4-difluorobenzyl)-1H-pyrazole-4-carboxamide] yielded an IC50 of 674 nM. The compound `Cc1ccc2cc(Cn3cc(C(=O)NCc4c(Cl)cc(N)nc4C)nn3)ccc2n1` [Example 175, N-((6-Amino-4-chloro-2-methylpyridin-3-yl)methyl)-1-((2-methylquinolin-6-yl)methyl)-1H-1,2,3-triazole-4-carboxamide] gave a 50% inhibitory concentration (IC50) of 61 nM. `Cc1cc(N)nc(C)c1CNC(=O)c1cnn(Cc2noc3ccccc23)c1` [Example 106, N-((6-amino-2,4-dimethylpyridin-3-yl)methyl)-1-(benzo[d]isoxazol-3-ylmethyl)-1H-pyrazole-4-carboxamide] displayed an IC50 of 415 nM.

Compound `Cc1cc(N)nc(C)c1CNC(=O)c1ncc(Cc2ccccc2)o1` [Example 7, N-((6-amino-2,4-dimethylpyridin-3-yl)methyl)-5-benzyloxazole-2-carboxamide] yielded an IC50 of 2030 nM.

Turning to `Cc1cc(N)nc(C)c1CNC(=O)c1cn(Cc2ccc3c(c2)c(C)c(C)n3C)nn1` [Example 166, N-((6-amino-2,4-dimethylpyridin-3-yl)methyl)-1-((1,2,3-trimethyl-1H-indol-5-yl)methyl)-1H-1,2,3-triazole-4-carboxamide], the IC50 came to 0.2 nM. The figure for `Cc1cc(N)nc(C)c1CNC(=O)c1cnn(Cc2csc(Cc3ccccc3)n2)c1` [Example 27, N-((6-amino-2,4-dimethylpyridin-3-yl)methyl)-1-((2-benzylthiazol-4-yl)methyl)-1H-pyrazole-4-carboxamide] is 21 nM. As for `Cc1cc(N)nc(C)c1CNC(=O)c1cnn(Cc2ccc(CN3C(=O)CCC3=O)cc2)c1` [Example 17, N-((6-amino-2,4-dimethylpyridin-3-yl)methyl)-1-(4-((2,5-dioxopyrrolidin-1-yl)methyl)benzyl)-1H-pyrazole-4-carboxamide], the half-maximal inhibitory concentration (IC50) was found to be 98 nM. As for `Cc1cc(N)nc(C)c1CNC(=O)c1ncn(Cc2cccc(-n3cccn3)c2)n1` [Example 67, 1-(3-(1H-pyrazol-1-yl)benzyl)-N-((6-amino-2,4-dimethylpyridin-3-yl)methyl)-1H-1,2,4-triazole-3-carboxamide], it took 60 nM to reach half-maximal inhibition (IC50).

For the origin of these results see patent US9290485B2, “N-((6-amino-pyridin-3-yl)methyl)-heteroaryl-carboxamides” (NOVARTIS AG, priority 2010, dated 2016).
